From patent publication US6900219B2, “ABCA-1 elevating compounds” (CV Therapeutics, Inc., priority 2002, dated 2005)

The compounds below were run on ABCA-1 gene (assay: compounds tested and found to elevate cellular expression of the ABCA-1 gene (Examples 1-6; test not named)).
Format: cell-based
Description: Activity testing is conducted as described in those patents and patent applications referenced above, and in the Examples below, and by methods apparent to one skilled in the art.

SMILES	cellular expression of the ABCA-1 gene
CCCN(C(=O)Nc1ccc(Br)cc1)C(C)c1nc2cc(Cl)ccc2c(=O)n1-c1ccc(C)cc1 (stereo not drawn) [3-(4-bromo-phenyl)-1-[1-(7-chloro-4-oxo-3-p-tolyl-3,4-dihydro-quinazolin-2-yl)-ethyl]-1-propyl-urea]	elevate cellular expression of the ABCA-1 gene
Clc1ccc(-c2cc(-c3ccccc3)[nH]n2)cc1 [3-(4-chlorophenyl)-5-phenylpyrazole]	elevate cellular expression of the ABCA-1 gene
Fc1cccc(CSc2ncc3ccccn23)c1 [3-[(3-fluorophenyl)methylthio]-4-hydroimidazolo[1,5-a]pyridine]	elevate cellular expression of the ABCA-1 gene
Cc1ccc(-c2ccc3c(N)c(C#N)sc3n2)cc1 [3-amino-6-(4-methylphenyl)thiopheno[2,3-b]pyridine-2-carbonitrile]	elevate cellular expression of the ABCA-1 gene
O=C(CCC1CCCC1)Nc1ccc2c(c1)CCC2 [3-cyclopentyl-N-indan-5-ylpropanamide]	elevate cellular expression of the ABCA-1 gene
O=[N+]([O-])c1ccc(COc2ccc(C3SCCS3)cc2)cc1 [4-(1,3-dithiolan-2-yl)-1-[(4-nitrophenyl)methoxy]benzene]	elevate cellular expression of the ABCA-1 gene
Cc1ccc(-n2ncc(N(C)n3cccc3)c(Cl)c2=O)cc1 [4-chloro-2-(4-methylphenyl)-5-(methylpyrrolylamino)-2-hydropyridazin-3-one]	elevate cellular expression of the ABCA-1 gene
O=C(Nc1nccs1)c1ccc(C(F)(F)F)cc1 [4-trifluoromethylphenyl-N-(1,3-thiazol-2-yl)carboxamide]	elevate cellular expression of the ABCA-1 gene
CCOc1ccc(-n2c(C(C)N3CCN(C(=O)Nc4ccc(OC)cc4OC)CC3)nc3ccccc3c2=O)cc1 (stereo not drawn) [4-{1-[3-(4-ethoxyphenyl)-4-oxo-3,4-dihydro-quinazolin-2-yl]-ethyl}-piperazine-1-carboxylic acid (2,4-dimethoxy-phenyl)-amide]	elevate cellular expression of the ABCA-1 gene
CCCOc1nc(-c2ccc(Cl)cc2Cl)n(S(=O)(=O)Cc2ccccc2)n1 [5-(2,4-dichlorophenyl)-1-[benzylsulfonyl]-3-propoxy-1,2,4-triazole]	elevate cellular expression of the ABCA-1 gene
Cc1ccc(-c2ncc(-c3ccc(Cl)cc3)o2)cc1 [5-(4-chlorophenyl)-2-(4-methylphenyl)-1,3-oxazole]	elevate cellular expression of the ABCA-1 gene
CCc1c(C(=O)NCc2ccco2)cnn1-c1nc(-c2ccc(C)cc2)cs1 [5-ethyl-1-(4-p-tolyl-thiazol-2-yl)-1H-pyrazole-4-carboxylic acid (furan-2-ylmethyl)-amide]	elevate cellular expression of the ABCA-1 gene
CCc1c(C(=O)NCc2ccco2)cnn1-c1nc(-c2ccc(OC)cc2)cs1 [5-ethyl-1-[4-(4-methoxy-phenyl)-thiazol-2-yl]-1H-pyrazole-4-carboxylic acid (furan-2-ylmethyl)-amide]	elevate cellular expression of the ABCA-1 gene
Cc1ccc(-c2csc(-n3ncc(C(=O)NC(C)c4ccccc4)c3C(C)C)n2)cc1 (stereo not drawn) [5-isopropyl-1-(4-p-tolyl-thiazol-2-yl)-1H-pyrazole-4-carboxylic acid (1-phenyl-ethyl)-amide]	elevate cellular expression of the ABCA-1 gene
Cc1ccc(-c2csc(-n3ncc(C(=O)NCCC(C)C)c3C(C)C)n2)cc1 [5-isopropyl-1-(4-p-tolyl-thiazol-2-yl)-1H-pyrazole-4-carboxylic acid (3-methyl-butyl)-amide]	elevate cellular expression of the ABCA-1 gene
Cc1ccc(-c2csc(-n3ncc(C(=O)NC4CC4)c3C(C)C)n2)cc1 [5-isopropyl-1-(4-p-tolyl-thiazol-2-yl)-1H-pyrazole-4-carboxylic acid cyclopropylamide]	elevate cellular expression of the ABCA-1 gene
Cc1ccc(-c2csc(-n3ncc(C(=O)NCCc4ccccc4)c3C)n2)cc1 [5-methyl-1-(4-p-tolyl-thiazol-2-yl)-1H-pyrazole-4-carboxylic acid phenethyl-amide]	elevate cellular expression of the ABCA-1 gene
O=[N+]([O-])c1ccc(-c2cnc3ccc(Cl)cn23)cc1 [6-chloro-3-(4-nitrophenyl)-4-hydroimidazolo[1,2-a]pyridine]	elevate cellular expression of the ABCA-1 gene
Cc1ccc2nc3c(nc2c1)-c1ccccc1C3=O [7-methylindeno[2,3-b]quinoxalin-1′-one]	elevate cellular expression of the ABCA-1 gene
CSC(N)=N/N=C/c1ccc(Cl)cc1 [(1 Z,3E)-2,3-diaza-4-(4-chlorophenyl)-1-methylthiobuta-1,3-dienylamine]	elevate cellular expression of the ABCA-1 gene
COc1ccc(C(=O)O/N=C(/N)c2cccnc2)cc1 [(1E)-2-amino-1-aza-2-(3-pyridyl)vinyl 4-methoxybenzoate]	elevate cellular expression of the ABCA-1 gene
COc1ccc(/C(N)=N\OC(=O)c2ccccc2OC)cc1 [(1E)-2-amino-1-aza-2-(4-methoxyphenyl)vinyl 2-methoxybenzoate]	elevate cellular expression of the ABCA-1 gene
O=C(Nc1nc2c(Cl)cccc2s1)c1ccc2c(c1)OC(F)(F)O2 [(2,2-difluorobenzo[3,4-d]1,3-dioxolen-5-yl)-N-(4-chlorobenzothiazol-2-yl)carboxamide]	elevate cellular expression of the ABCA-1 gene
O=C(NC1=NCCS1)c1ccc(Cl)cc1Cl [(2,4-dichlorophenyl)-N-(1,3-thiazolin-2-yl)carboxamide]	elevate cellular expression of the ABCA-1 gene
O=C(Nc1nc(-c2ccc3ccccc3c2)cs1)c1ccc(F)cc1F [(2,4-difluorophenyl)-N-(4-(2-naphthyl)(1,3-thiazol-2-yl))carboxamide]	elevate cellular expression of the ABCA-1 gene
O=C(Nc1ncc(-c2ccccc2)s1)c1ccc(F)cc1F [(2,4-difluorophenyl)-N-(5-phenyl(1,3-thiazol-2-yl)) carboxamide]	elevate cellular expression of the ABCA-1 gene
O=C(Nc1nc(-c2ccc(Cl)cc2)cs1)c1ccc(F)cc1F [(2,4-difluorophenyl)-N-[4-(4-chlorophenyl)(1,3-thiazol-2-yl)]carboxamide]	elevate cellular expression of the ABCA-1 gene
Cc1cc(C(=O)Nc2ncc(-c3ccccc3)s2)c(C)o1 [(2,5-dimethyl(3-furyl))—N-(5-phenyl(1,3-thiazol-2-yl))carboxamide]	elevate cellular expression of the ABCA-1 gene
Nc1ccccc1C(=O)Nc1ccc(Cl)cc1 [(2-aminophenyl)-N-(4-chlorophenyl)carboxamide]	elevate cellular expression of the ABCA-1 gene
Cc1ccc(NC(=O)c2ccccc2N)cc1 [(2-aminophenyl)-N-(4-methylphenyl)carboxamide]	elevate cellular expression of the ABCA-1 gene
